In US20100056627A1, “PHARMACEUTICAL COMPOSITIONS OF ALKYL GALLATES” (priority 2006, published 2010):
Values after ≈ are worked out from the molar mass of the structure shown. Values joined by “and” are separate entries in the source; they are usually repeats but may differ in a detail not shown here. Equal values may be shown once. Read-outs that look alike come from different tables or passages of the source.

Assays:
[1] = test system: influenza virus in MDCK cells; type: cell-based
influenza virus B/T/1/05 = experiment: Time course of virucidal activity at 37° C., infectivity by plaque assay in MDCK cells (FIGS. 6 to 12); type: cell-based
Procedure: The experiments in FIGS. 7 to 12 were carried out at 37° C. The infectivity of viruses was determined using MDCK cells by the plaque assay method.
This virucidal activity of octyl gallate was reinforced by propyl gallate also against influenza virus A/Aichi (H3N2) in the same manner as above.

[2] = test system: influenza virus A/Aichi (H3N2); experiment: Virucidal activity against influenza virus A/Aichi (H3N2) (Table 16); settings: for No of plaques: Table 16
MRSA COL strain = experiment: Time required for killing bacteria, octyl gallate and propyl gallate (FIG. 1); type: cell-based, Staphylococcus aureus; settings: concomitant use of octyl gallate and propyl gallate
Excerpt: FIG. 1 is a graph showing shortening of the time required for killing bacteria by the concomitant use of octyl gallate and propyl gallate against MRSA COL strain.

[3] = test system: clinical isolates MRSA and MSSA; settings: for Recrystalized octyl gallate MIC: sodium ascorbate 0.5 mg/ml; for MIC50 / MIC: Staphylococcus aureus, MRSA|MSSA; for MIC50: read-out: MIC50, 24 h MIC, MRSA, trisodium citrate medium
[4] = test system: gram-positive and gram-negative bacteria; experiment: MIC (minimum growth inhibition concentration), 2-fold serial agar plate dilution on Mueller Hinton II Agar, with concomitant alkyl gallate and salt; settings: for MIC: 24 h

In the case of CCCCCCCCOC(=O)c1cc(O)c(O)c(O)c1 [octyl gallate], the “growth inhibition of influenza virus in MDCK cells” value [1] is reported as “markedly reinforced”, the “growth of influenza virus in MDCK cells” value [1] is reported as “inhibits the growth” and the “time required for killing viruses” value (influenza virus B/T/1/05; concomitant use of octyl gallate and propyl gallate, FIG. 6) is reported as “shortened to a large extent”. For the same compound, the “virucidal activity of octyl gallate alone” value (influenza virus B/T/1/05; influenza virus B/T/1/05, FIG. 7) was “has a virucidal activity”, the “time until the infectivity to cells is lost” value (influenza virus B/T/1/05; octyl gallate 30 mg/L and propyl gallate 300 mg/L, 37° C., FIG. 12) was no more than 1 min and the No of plaques ([2]; octyl gallate 20 mg/L, J1816 60 mg/L, NaCitrate 0.90%) was 0. For the same compound, the No of plaques ([2]; octyl gallate 20 mg/L, propyl gallate 300 mg/L, J1816 150 mg/L, NaCitrate 0.90%) was 0, the No of plaques ([2]; octyl gallate 40 mg/L, J1816 20 mg/L, NaCitrate 0.90%) was 0 and the No of plaques ([2]; octyl gallate 40 mg/L, propyl gallate 300 mg/L, J1816 210 mg/L, NaCitrate 0.90%) was 0. It also gave a No of plaques ([2]; octyl gallate 60 mg/L, J1816 180 mg/L, NaCitrate 0.90%) of 0, a No of plaques ([2]; octyl gallate 60 mg/L, J1816 180 mg/L, NaCitrate not given) of 0 and a No of plaques ([2]; octyl gallate 60 mg/L, propyl gallate 300 mg/L, J1816 270 mg/L, NaCitrate 0.90%) of 0. The No of plaques ([2]; octyl gallate 80 mg/L, J1816 240 mg/L, NaCitrate 0.90%) was 0, the No of plaques ([2]; octyl gallate 80 mg/L, propyl gallate 300 mg/L, J1816 330 mg/L, NaCitrate 0.90%) was 0 and the No of plaques ([2]; octyl gallate 100 mg/L, J1816 300 mg/L, NaCitrate 0.90%) was 0. The No of plaques ([2]; octyl gallate 100 mg/L, propyl gallate 300 mg/L, J1816 390 mg/L, NaCitrate 0.90%) was 0, the “virucidal activity of octyl gallate against influenza virus A/Aichi (H3N2)” value ([2]; with propyl gallate) was “reinforced” and the “time required for killing bacteria” value (MRSA COL strain) was “shortened to a large extent”. For the same compound, the “Recrystalized octyl gallate MIC” value ([3]; MHA (+0.9% disodium hydrogen citrate), DDW, 24 h) was 0.625 µg/mL and 1.25 µg/mL, the “Recrystalized octyl gallate MIC” value ([3]; MHA (+0.9% trisodium citrate), propyl gallate 100 mg/L (with J-1216), 24 h) was 1.25 µg/mL and the “Recrystalized octyl gallate MIC” value ([3]; MHA (+0.9% trisodium citrate), propyl gallate 200 mg/L (with J-1216), 24 h) was 0.625 µg/mL and 1.25 µg/mL. The “octyl gallate concentration at which all strains were killed” value ([3]; MRSA (21 strains) and MSSA (8 strains), concomitant propyl gallate 50 mg/L, disodium hydrogen citrate) was 1.25 mg/L, the MIC50 ([3]; 24 h, J-1216 600 mg/L) was 20 µg/mL (≈ 70.8 µM) and the MIC50 ([3]; 24 h, propyl gallate 75 mg/L) was 10 µg/mL (≈ 35.4 µM). The MIC50 ([3]; 24 h, propyl gallate 100 mg/L) was 2.5 µg/mL (≈ 8.85 µM), the MIC50 ([3]; 24 h, propyl gallate 200 mg/L) was 2.5 µg/mL (≈ 8.85 µM) and the MIC ([3]; 24 h, read-out: MIC100, 24 h MIC, MRSA, disodium hydrogen citrate medium, DDW) was 2.5 µg/mL (≈ 8.85 µM). The MIC ([3]; 24 h, read-out: MIC100, 24 h MIC, MRSA, disodium hydrogen citrate medium, propyl gallate 50 mg/L) was 1.25 µg/mL (≈ 4.43 µM), the MIC ([3]; 24 h, read-out: MIC100, 24 h MIC, MRSA, trisodium citrate medium, J-1216 600 mg/L) was 50 µg/mL (≈ 177 µM) and the MIC ([3]; 24 h, read-out: MIC100, 24 h MIC, MRSA, trisodium citrate medium, propyl gallate 75 mg/L) was 10 µg/mL (≈ 35.4 µM). The MIC ([3]; 24 h, read-out: MIC100, 24 h MIC, MRSA, trisodium citrate medium, propyl gallate 100 mg/L) was 5 µg/mL (≈ 17.7 µM), the MIC ([3]; 24 h, read-out: MIC100, 24 h MIC, MRSA, trisodium citrate medium, propyl gallate 200 mg/L) was 5 µg/mL (≈ 17.7 µM) and the MIC ([3]; 24 h, read-out: Octyl gallate MIC, CAMHA, isoamyl gallate 50 μg/mL, 24 h) was no more than 0.0244 µg/mL. The MIC ([3]; 24 h, read-out: Recrystalized octyl gallate MIC, MHA (+0.9% disodium hydrogen citrate), sodium ascorbate 0.5 mg/ml, DDW, 24 h) was 2.5 µg/mL (≈ 8.85 µM), the MIC ([3]; 24 h, read-out: Recrystalized octyl gallate MIC, MHA (+0.9% disodium hydrogen citrate), sodium ascorbate 0.5 mg/ml, propyl gallate 50 mg/L, 24 h) was 1.25 µg/mL (≈ 4.43 µM) and the MIC ([3]; 24 h, read-out: Recrystalized octyl gallate MIC, MHA (+0.9% trisodium citrate), sodium ascorbate 0.5 mg/ml, propyl gallate 100 mg/L (with J-1216), 24 h) was 2.5 µg/mL (≈ 8.85 µM). The MIC ([3]; 24 h, read-out: Recrystalized octyl gallate MIC, MHA (+0.9% trisodium citrate), sodium ascorbate 0.5 mg/ml, propyl gallate 200 mg/L (with J-1216), 24 h) was 2.5 µg/mL (≈ 8.85 µM), the MIC ([3]; 48 h, read-out: Octyl gallate MIC, Isoamyl G none, 48 h, strain = c6 of each row) was 31.2 µg/mL (≈ 111 µM) and the “MIC Range, 24 h MIC, MRSA” value ([3]; disodium hydrogen citrate medium, DDW) was 0.625 to 2.5 µg/mL. For the same compound, the “MIC Range, 24 h MIC, MRSA” value ([3]; disodium hydrogen citrate medium, propyl gallate 50 mg/L) was 0.625 to 1.25 µg/mL, the “MIC Range, 24 h MIC, MRSA” value ([3]; trisodium citrate medium, J-1216 600 mg/L) was 20 to 50 µg/mL and the “MIC Range, 24 h MIC, MRSA” value ([3]; trisodium citrate medium, propyl gallate 75 mg/L) was 2.5 to 10 µg/mL. The “MIC Range, 24 h MIC, MRSA” value ([3]; trisodium citrate medium, propyl gallate 100 mg/L) was 1.25 to 5 µg/mL, the “MIC Range, 24 h MIC, MRSA” value ([3]; trisodium citrate medium, propyl gallate 200 mg/L) was 0.0625 to 5 µg/mL and the MIC ([4]; read-out: Octyl gallate MIC, NaCl 4%, isoamyl gallate 100 μg/mL) was 0.98 µg/mL. For the same compound, the MIC ([4]; read-out: Recrystalized octyl gallate MIC, Dec. 24, 2007, MHA (+0.9% disodium hydrogen citrate), sodium ascorbate 0.5 mg/ml, propyl gallate 300 mg/L) was greater than 100 µg/mL, the “change of MIC value of octyl gallate by isoamyl gallate” value ([4]; as the amount of NaCl added (2 to 4%) increases (Table 4)) was “markedly decreased” and the “effect on bacteria of concomitant use with propyl gallate” value ([4]; propyl gallate 300 mg/L, except for three strains of bacteria) was “completely killed”. For the same compound, the “MIC of octyl gallate lower than that of chlorhexidine gluconate, maximum” value ([4]; with isoamyl gallate at or below MIC and NaCl) was no more than 640 times.
